{
  "source": "patent US5164388A",
  "about": "“Heterocyclic peptide renin inhibitors” (Abbott Laboratories, priority 1991, dated 1992)",
  "key": {"Plasma Renin Activity": {"test_system": "Plasma Renin Activity", "assay": "Plasma renin activity in salt depleted monkeys following oral dosing", "format": "in vivo, cynomolgous monkeys", "details": "oral 3 mg/kg", "method": "(§1) The ability of the compounds of the invention to decrease blood pressure and plasma renin activity in vivo can be determined using the following method.\n(§2) Male cynomolgous monkeys housed under constant temperature and lighting conditions and weighing 3-5 kg were instrumented with chronic indwelling arterial and venous catheters. Following pretreatment by salt-depletion, the monkeys were dosed by nasogastric tube with 3 mg/kg of the compound of Example 152."}, "[1]": {"assay": "Blood pressure in salt depleted monkeys following oral dosing", "format": "in vivo, cynomolgous monkeys", "details": "oral 3 mg/kg", "method": "as §1, §2"}, "human renal renin": {"target": "T1, human renal renin (Homo sapiens, UniProt P00797)", "T1 construct": "human renal renin, free from acid proteolytic activity; from tissue", "T1 sequence (P00797 67-406)": "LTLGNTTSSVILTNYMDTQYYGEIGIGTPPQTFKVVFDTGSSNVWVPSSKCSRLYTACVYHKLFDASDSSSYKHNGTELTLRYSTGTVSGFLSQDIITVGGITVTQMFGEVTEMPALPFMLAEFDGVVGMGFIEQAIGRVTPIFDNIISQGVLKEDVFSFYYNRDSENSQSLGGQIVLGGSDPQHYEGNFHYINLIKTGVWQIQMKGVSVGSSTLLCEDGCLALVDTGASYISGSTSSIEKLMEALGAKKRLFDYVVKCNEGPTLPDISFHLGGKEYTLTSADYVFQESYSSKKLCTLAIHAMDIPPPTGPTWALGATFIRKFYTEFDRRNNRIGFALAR", "assay": "Inhibition of human renal renin in vitro (angiotensin I formed, radioimmunoassay)", "format": "biochemical", "details": "human angiotensinogen substrate, 37 degrees C., pH 6.0", "method": "The novel compounds of the present invention are also useful for treating congestive heart failure. […] At the end of the incubation, the amount of angiotensin I formed is measured by radioimmunoassay and the molar concentration required to cause 50% inhibition, expressed as the IC50, is calculated."}, "[2]": {"details": "Mean of three monkeys, time 0 min"}, "[3]": {"details": "Mean of three monkeys, time 5 min"}, "[4]": {"details": "Mean of three monkeys, time 15 min"}, "[5]": {"details": "Mean of three monkeys, time 30 min"}, "[6]": {"details": "Mean of three monkeys, time 60 min"}, "[7]": {"details": "Mean of three monkeys, time 90 min"}, "[8]": {"details": "Mean of three monkeys, time 120 min"}, "[9]": {"details": "Mean of three monkeys, time 180 min"}, "[10]": {"details": "Mean of three monkeys, time 360 min"}},
  "data": [
    {"compound": "CC1COC(C(O)C(CC2CCCCC2)NC(=O)C(Cc2cscn2)N2CCCC(Cc3ccccc3)(NS(=O)(=O)N3CCN(C)CC3)C2=O)C1", "note": "[Example 152, (2S1-((3S)-((N-methylpiperazinsulfonyl)amino-3-phenylmethyl-2-oxo-1-piperidinyl)-3-(4-thiazolyl)propionic acid amide of (2S,4S,1'R,2'S)-2-(2'-amino-3'-cyclohexyl-1'-hydroxypropyl)-4-methyltetrahydrofuran]", "values": [
      {"measurement": "Plasma Renin Activity (PRA)", "setting": "Plasma Renin Activity; [2]", "result": 21.7, "unit": "ng/mL/h"},
      {"measurement": "Plasma Renin Activity (PRA)", "setting": "Plasma Renin Activity; [3]", "result": 0.8, "unit": "ng/mL/h"},
      {"measurement": "Plasma Renin Activity (PRA)", "setting": "Plasma Renin Activity; [4]", "result": 0.2, "unit": "ng/mL/h"},
      {"measurement": "Plasma Renin Activity (PRA)", "setting": "Plasma Renin Activity; [5]", "result": 0.0, "unit": "ng/mL/h"},
      {"measurement": "Plasma Renin Activity (PRA)", "setting": "Plasma Renin Activity; [6]", "result": 0.0, "unit": "ng/mL/h"},
      {"measurement": "Plasma Renin Activity (PRA)", "setting": "Plasma Renin Activity; [7]", "result": 0.0, "unit": "ng/mL/h"},
      {"measurement": "Plasma Renin Activity (PRA)", "setting": "Plasma Renin Activity; [8]", "result": 0.1, "unit": "ng/mL/h"},
      {"measurement": "Plasma Renin Activity (PRA)", "setting": "Plasma Renin Activity; [9]", "result": 0.1, "unit": "ng/mL/h"},
      {"measurement": "Plasma Renin Activity (PRA)", "setting": "Plasma Renin Activity; [10]", "result": 0.5, "unit": "ng/mL/h"},
      {"measurement": "Plasma Renin Activity (PRA)", "setting": "Plasma Renin Activity; Monkey 1, time 0 min", "result": 12.6, "unit": "ng/mL/h"},
      {"measurement": "Plasma Renin Activity (PRA)", "setting": "Plasma Renin Activity; Monkey 1, time 5 min", "result": 2.2, "unit": "ng/mL/h"},
      {"measurement": "Plasma Renin Activity (PRA)", "setting": "Plasma Renin Activity; Monkey 1, time 15 min", "result": 0.44, "unit": "ng/mL/h"},
      {"measurement": "Plasma Renin Activity (PRA)", "setting": "Plasma Renin Activity; Monkey 1, time 30 min", "result": 0.0, "unit": "ng/mL/h"},
      {"measurement": "Plasma Renin Activity (PRA)", "setting": "Plasma Renin Activity; Monkey 1, time 60 min", "result": 0.0, "unit": "ng/mL/h"},
      {"measurement": "Plasma Renin Activity (PRA)", "setting": "Plasma Renin Activity; Monkey 1, time 90 min", "result": 0.1, "unit": "ng/mL/h"},
      {"measurement": "Plasma Renin Activity (PRA)", "setting": "Plasma Renin Activity; Monkey 1, time 120 min", "result": 0.0, "unit": "ng/mL/h"},
      {"measurement": "Plasma Renin Activity (PRA)", "setting": "Plasma Renin Activity; Monkey 1, time 180 min", "result": 0.1, "unit": "ng/mL/h"},
      {"measurement": "Plasma Renin Activity (PRA)", "setting": "Plasma Renin Activity; Monkey 1, time 360 min", "result": 0.2, "unit": "ng/mL/h"},
      {"measurement": "Plasma Renin Activity (PRA)", "setting": "Plasma Renin Activity; Monkey 2, time 0 min", "result": 34.2, "unit": "ng/mL/h"},
      {"measurement": "Plasma Renin Activity (PRA)", "setting": "Plasma Renin Activity; Monkey 2, time 5 min", "result": 0.1, "unit": "ng/mL/h"},
      {"measurement": "Plasma Renin Activity (PRA)", "setting": "Plasma Renin Activity; Monkey 2, time 15 min", "result": 0.0, "unit": "ng/mL/h"},
      {"measurement": "Plasma Renin Activity (PRA)", "setting": "Plasma Renin Activity; Monkey 2, time 30 min", "result": 0.0, "unit": "ng/mL/h"},
      {"measurement": "Plasma Renin Activity (PRA)", "setting": "Plasma Renin Activity; Monkey 2, time 60 min", "result": 0.0, "unit": "ng/mL/h"},
      {"measurement": "Plasma Renin Activity (PRA)", "setting": "Plasma Renin Activity; Monkey 2, time 90 min", "result": 0.0, "unit": "ng/mL/h"},
      {"measurement": "Plasma Renin Activity (PRA)", "setting": "Plasma Renin Activity; Monkey 2, time 120 min", "result": 0.3, "unit": "ng/mL/h"},
      {"measurement": "Plasma Renin Activity (PRA)", "setting": "Plasma Renin Activity; Monkey 2, time 180 min", "result": 0.2, "unit": "ng/mL/h"},
      {"measurement": "Plasma Renin Activity (PRA)", "setting": "Plasma Renin Activity; Monkey 2, time 360 min", "result": 0.7, "unit": "ng/mL/h"},
      {"measurement": "Plasma Renin Activity (PRA)", "setting": "Plasma Renin Activity; Monkey 3, time 0 min", "result": 18.4, "unit": "ng/mL/h"},
      {"measurement": "Plasma Renin Activity (PRA)", "setting": "Plasma Renin Activity; Monkey 3, time 5 min", "result": 0.1, "unit": "ng/mL/h"},
      {"measurement": "Plasma Renin Activity (PRA)", "setting": "Plasma Renin Activity; Monkey 3, time 15 min", "result": 0.2, "unit": "ng/mL/h"},
      {"measurement": "Plasma Renin Activity (PRA)", "setting": "Plasma Renin Activity; Monkey 3, time 30 min", "result": 0.0, "unit": "ng/mL/h"},
      {"measurement": "Plasma Renin Activity (PRA)", "setting": "Plasma Renin Activity; Monkey 3, time 60 min", "result": 0.1, "unit": "ng/mL/h"},
      {"measurement": "Plasma Renin Activity (PRA)", "setting": "Plasma Renin Activity; Monkey 3, time 90 min", "result": 0.0, "unit": "ng/mL/h"},
      {"measurement": "Plasma Renin Activity (PRA)", "setting": "Plasma Renin Activity; Monkey 3, time 120 min", "result": 0.0, "unit": "ng/mL/h"},
      {"measurement": "Plasma Renin Activity (PRA)", "setting": "Plasma Renin Activity; Monkey 3, time 180 min", "result": 0.1, "unit": "ng/mL/h"},
      {"measurement": "Plasma Renin Activity (PRA)", "setting": "Plasma Renin Activity; Monkey 3, time 360 min", "result": 0.7, "unit": "ng/mL/h"},
      {"measurement": "Blood Pressure (BP)", "setting": "[1]; [2]", "result": 86, "unit": "mmHg"},
      {"measurement": "Blood Pressure (BP)", "setting": "[1]; [3]", "result": 85, "unit": "mmHg"},
      {"measurement": "Blood Pressure (BP)", "setting": "[1]; [4]", "result": 79, "unit": "mmHg"},
      {"measurement": "Blood Pressure (BP)", "setting": "[1]; [5]", "result": 74, "unit": "mmHg"},
      {"measurement": "Blood Pressure (BP)", "setting": "[1]; [6]", "result": 73, "unit": "mmHg"},
      {"measurement": "Blood Pressure (BP)", "setting": "[1]; [7]", "result": 76, "unit": "mmHg"},
      {"measurement": "Blood Pressure (BP)", "setting": "[1]; [8]", "result": 77, "unit": "mmHg"},
      {"measurement": "Blood Pressure (BP)", "setting": "[1]; [9]", "result": 79, "unit": "mmHg"},
      {"measurement": "Blood Pressure (BP)", "setting": "[1]; [10]", "result": 83, "unit": "mmHg"},
      {"measurement": "Blood Pressure (BP)", "setting": "[1]; Monkey 1, time 0 min", "result": 75, "unit": "mmHg"},
      {"measurement": "Blood Pressure (BP)", "setting": "[1]; Monkey 1, time 5 min", "result": 75, "unit": "mmHg"},
      {"measurement": "Blood Pressure (BP)", "setting": "[1]; Monkey 1, time 15 min", "result": 75, "unit": "mmHg"},
      {"measurement": "Blood Pressure (BP)", "setting": "[1]; Monkey 1, time 30 min", "result": 71, "unit": "mmHg"},
      {"measurement": "Blood Pressure (BP)", "setting": "[1]; Monkey 1, time 60 min", "result": 70, "unit": "mmHg"},
      {"measurement": "Blood Pressure (BP)", "setting": "[1]; Monkey 1, time 90 min", "result": 74, "unit": "mmHg"},
      {"measurement": "Blood Pressure (BP)", "setting": "[1]; Monkey 1, time 120 min", "result": 68, "unit": "mmHg"},
      {"measurement": "Blood Pressure (BP)", "setting": "[1]; Monkey 1, time 180 min", "result": 72, "unit": "mmHg"},
      {"measurement": "Blood Pressure (BP)", "setting": "[1]; Monkey 1, time 360 min", "result": 72, "unit": "mmHg"},
      {"measurement": "Blood Pressure (BP)", "setting": "[1]; Monkey 2, time 0 min", "result": 105, "unit": "mmHg"},
      {"measurement": "Blood Pressure (BP)", "setting": "[1]; Monkey 2, time 5 min", "result": 99, "unit": "mmHg"},
      {"measurement": "Blood Pressure (BP)", "setting": "[1]; Monkey 2, time 15 min", "result": 92, "unit": "mmHg"},
      {"measurement": "Blood Pressure (BP)", "setting": "[1]; Monkey 2, time 30 min", "result": 82, "unit": "mmHg"},
      {"measurement": "Blood Pressure (BP)", "setting": "[1]; Monkey 2, time 60 min", "result": 85, "unit": "mmHg"},
      {"measurement": "Blood Pressure (BP)", "setting": "[1]; Monkey 2, time 90 min", "result": 85, "unit": "mmHg"},
      {"measurement": "Blood Pressure (BP)", "setting": "[1]; Monkey 2, time 120 min", "result": 80, "unit": "mmHg"},
      {"measurement": "Blood Pressure (BP)", "setting": "[1]; Monkey 2, time 180 min", "result": 92, "unit": "mmHg"},
      {"measurement": "Blood Pressure (BP)", "setting": "[1]; Monkey 2, time 360 min", "result": 93, "unit": "mmHg"},
      {"measurement": "Blood Pressure (BP)", "setting": "[1]; Monkey 3, time 0 min", "result": 77, "unit": "mmHg"},
      {"measurement": "Blood Pressure (BP)", "setting": "[1]; Monkey 3, time 5 min", "result": 82, "unit": "mmHg"},
      {"measurement": "Blood Pressure (BP)", "setting": "[1]; Monkey 3, time 15 min", "result": 69, "unit": "mmHg"},
      {"measurement": "Blood Pressure (BP)", "setting": "[1]; Monkey 3, time 30 min", "result": 69, "unit": "mmHg"},
      {"measurement": "Blood Pressure (BP)", "setting": "[1]; Monkey 3, time 60 min", "result": 65, "unit": "mmHg"},
      {"measurement": "Blood Pressure (BP)", "setting": "[1]; Monkey 3, time 90 min", "result": 70, "unit": "mmHg"},
      {"measurement": "Blood Pressure (BP)", "setting": "[1]; Monkey 3, time 120 min", "result": 82, "unit": "mmHg"},
      {"measurement": "Blood Pressure (BP)", "setting": "[1]; Monkey 3, time 180 min", "result": 72, "unit": "mmHg"},
      {"measurement": "Blood Pressure (BP)", "setting": "[1]; Monkey 3, time 360 min", "result": 84, "unit": "mmHg"},
      {"measurement": "IC50", "setting": "human renal renin", "result": 0.55, "unit": "nM"}
    ]}
  ]
}
